Test results published in patent publication US7030114B1, “Compounds which inhibit leukocyte adhesion mediated by VLA-4” (Elan Pharmaceuticals, Inc., priority 1997, dated 2006).

Test system: Experimental Autoimmune (or Allergic) Encephalomyelitis (“EAE”)
Assay: In vivo evaluation: Experimental Autoimmune (or Allergic) Encephalomyelitis (EAE) model, motor impairment
Set-up: species or system rats or guinea pigs
Conditions: treatment from Day 8, bid for five days, SC, PO or IP

Cc1ccc(S(=O)(=O)N2CCC[C@@]2(C)C(=O)N[C@@H](Cc2ccc(OC(=O)N3CCN(C)CC3)cc2)C(=O)OC(C)(C)C)cc1 [Example 47, N-(toluene-4-sulfonyl)-α-methylprolyl-L-4-(4-methylpiperazin-1-carbonyloxy)phenylalanine tert-butyl ester]
activity in EAE model (delayed the onset of symptoms, e.g., clinical scores no greater than 2 or slowed body weight loss as compared to the control): active
